# Test results from US9296723B2, “NAMPT inhibitors” (AbbVie Inc., priority 2012, dated 2016).
# pIC50: −log10 of the molar value.
# What was measured:
# NAMPT [1] = target: T1, NAMPT (Homo sapiens, UniProt P43490); assay: Time-Resolved Fluorescence Resonance Energy Transfer (TR-FRET) Binding Assay of NAMPT; settings: 6.8 nM NAMPT, 200 nM probe, equilibrated 3 hours, no substrates
# Outline: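 Compound was mixed with enzyme, probe and antibody and equilibrated 3 h at room temperature. TR-FRET read at Ex 337 nm, Em 520/495 nm. Ratios were normalized to controls and fitted to a four-parameter logistic equation for IC50.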
# NAMPT [2] = target: T1, NAMPT; assay: TR-FRET Binding Assay of NAMPT with PRPP; settings: 2 nM NAMPT, 2 nM probe, 200 µM PRPP and 2.5 mM ATP, equilibrated 16 hours
# Outline: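 TR-FRET probe displacement with 2 nM NAMPT, 2 nM probe and 1 nM Tb-anti-His antibody in the presence of 200 µM PRPP and 2.5 mM ATP, 2% DMSO (all final). Equilibrated 16 hours before reading to permit possible enzymatic modification of compounds.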
# PC3 cells = assay: NAMPT Cell Proliferation Assay (Cell Titer Glo); type: cell-based; settings: Homo sapiens, PC-3, 120 h, incubated 5 days, cell viability
# Outline: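 PC3 cells (500/well, RPMI with 10% heat-inactivated FBS) were exposed to 10-fold compound dilutions from […] for 5 days at 37 °C, 5% CO2. Viability was read with Cell Titer Glo; IC50 from sigmoidal fit of percent inhibition.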
# T1 sequence (P43490 whole entry): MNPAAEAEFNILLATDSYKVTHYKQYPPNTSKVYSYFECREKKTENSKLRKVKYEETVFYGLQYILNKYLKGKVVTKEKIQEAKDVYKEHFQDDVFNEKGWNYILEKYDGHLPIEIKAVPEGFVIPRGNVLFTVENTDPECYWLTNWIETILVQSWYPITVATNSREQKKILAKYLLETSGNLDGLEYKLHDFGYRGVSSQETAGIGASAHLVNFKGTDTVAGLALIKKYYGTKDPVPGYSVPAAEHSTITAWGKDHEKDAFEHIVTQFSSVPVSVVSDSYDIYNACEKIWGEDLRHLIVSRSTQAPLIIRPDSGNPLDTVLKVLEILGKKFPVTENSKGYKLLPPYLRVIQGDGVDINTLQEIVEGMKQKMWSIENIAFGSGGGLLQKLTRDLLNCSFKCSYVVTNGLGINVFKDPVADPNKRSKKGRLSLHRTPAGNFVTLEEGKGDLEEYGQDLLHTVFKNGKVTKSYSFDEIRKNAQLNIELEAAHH
pIC50 (NAMPT [1]),pIC50 (NAMPT [2]),pIC50 (PC3 cells),Compound
7.59,9.48,7.68,"O=C(Nc1ccc(C2CN(C(=O)c3ccco3)C2)cc1)N1CC(c2cccnc2)C1 [Example 224, N-{4-[1-(furan-2-ylcarbonyl)azetidin-3-yl]phenyl}-3-(pyridin-3-yl)azetidine-1-carboxamide]"
7.19,9.47,7.32,"CCCCC(=O)N1CC(c2ccc(NC(=O)N3CC(c4cccnc4)C3)cc2)C1 [Example 198, N-[4-(1-pentanoylazetidin-3-yl)phenyl]-3-(pyridin-3-yl)azetidine-1-carboxamide]"
7.27,9.50,7.55,"O=C(CC(F)(F)F)N1CC(Oc2ccc(NC(=O)N3CC(c4cccnc4)C3)cc2)C1 [Example 134, 3-(pyridin-3-yl)-N-(4-{[1-(3,3,3-trifluoropropanoyl)azetidin-3-yl]oxy}phenyl)azetidine-1-carboxamide]"
7.97,9.74,7.92,"O=C(Nc1ccc(C2CN(C(=O)c3cccs3)C2)cc1)N1CC(c2cccnc2)C1 [Example 222, 3-(pyridin-3-yl)-N-{4-[1-(thiophen-2-ylcarbonyl)azetidin-3-yl]phenyl}azetidine-1-carboxamide]"
7.24,9.46,7.41,"CC(C)(O)C(=O)N1CCC(Oc2ccc(NC(=O)N3CC(c4cccnc4)C3)cc2)CC1 [Example 7, N-(4-{[1-(2-hydroxy-2-methylpropanoyl)piperidin-4-yl]oxy}phenyl)-3-(pyridin-3-yl)azetidine-1-carboxamide]"
7.79,9.46,8.17,"CC[C@H](C)C(=O)N1CC=C(c2ccc(NC(=O)N3CC(c4cccnc4)C3)cc2)CC1 [Example 9, N-(4-{1-[(2S)-2-methylbutanoyl]-1,2,3,6-tetrahydropyridin-4-yl}phenyl)-3-(pyridin-3-yl)azetidine-1-carboxamide]"
7.73,9.44,7.95,"Cn1cccc1C(=O)N1CC[C@@H](Oc2ccc(NC(=O)N3CC(c4cccnc4)C3)cc2)C1 [Example 325, N-[4-({(3R)-1-[(1-methyl-1H-pyrrol-2-yl)carbonyl]pyrrolidin-3-yl}oxy)phenyl]-3-(pyridin-3-yl)azetidine-1-carboxamide]"
7.73,9.49,8.01,"CCCCC(=O)N1CC(Oc2ccc(NC(=O)N3CC(c4cccnc4)C3)cc2)C1 [Example 117, N-{4-[(1-pentanoylazetidin-3-yl)oxy]phenyl}-3-(pyridin-3-yl)azetidine-1-carboxamide]"
7.73,9.52,7.21,"COCC(=O)N1CCC(c2ccc(NC(=O)N3CC(c4cccnc4)C3)cc2)CC1 [Example 184, N-{4-[1-(methoxyacetyl)piperidin-4-yl]phenyl}-3-(pyridin-3-yl)azetidine-1-carboxamide]"
7.04,9.62,6.65,"CN1CCN(CC(=O)N2CCC(c3ccc(NC(=O)N4CC(c5cccnc5)C4)cc3)C2)CC1 (stereo not drawn) [Example 272, N-(4-{1-[(4-methylpiperazin-1-yl)acetyl]pyrrolidin-3-yl}phenyl)-3-(pyridin-3-yl)azetidine-1-carboxamide]"
6.42,9.44,6.67,"CC(C)CN1CC(c2ccc(NC(=O)N3CC(c4cccnc4)C3)cc2)C1 [Example 251, N-{4-[1-(2-methylpropyl)azetidin-3-yl]phenyl}-3-(pyridin-3-yl)azetidine-1-carboxamide]"
7.51,9.39,7.17,"CC(=O)N[C@@H](CC(C)C)C(=O)N1CCC(c2ccc(NC(=O)N3CC(c4cccnc4)C3)cc2)CC1 [Example 175, N-{4-[1-(N-acetyl-L-leucyl)piperidin-4-yl]phenyl}-3-(pyridin-3-yl)azetidine-1-carboxamide]"
7.49,9.53,7.78,"O=C(Nc1ccc(O[C@@H]2CCN(C(=O)c3ccco3)C2)cc1)N1CC(c2cccnc2)C1 [Example 326, N-(4-{[(3R)-1-(furan-2-ylcarbonyl)pyrrolidin-3-yl]oxy}phenyl)-3-(pyridin-3-yl)azetidine-1-carboxamide]"
6.57,9.59,7.06,"COCC(=O)N1CCC(c2ccc(NC(=O)N3CC(c4cccnc4)C3)cc2)C1 (stereo not drawn) [Example 292, N-{4-[1-(methoxyacetyl)pyrrolidin-3-yl]phenyl}-3-(pyridin-3-yl)azetidine-1-carboxamide]"
7.53,9.69,7.45,"CC(C)(C)CC(=O)N1CCC(c2ccc(NC(=O)N3CC(c4cccnc4)C3)cc2)C1 (stereo not drawn) [Example 289, N-{4-[1-(3,3-dimethylbutanoyl)pyrrolidin-3-yl]phenyl}-3-(pyridin-3-yl)azetidine-1-carboxamide]"
7.44,9.49,7.11,"COCCOCC(=O)N1CC(Oc2ccc(NC(=O)N3CC(c4cccnc4)C3)cc2)C1 [Example 118, N-[4-({1-[(2-methoxyethoxy)acetyl]azetidin-3-yl}oxy)phenyl]-3-(pyridin-3-yl)azetidine-1-carboxamide]"
8.43,9.66,8.16,"O=C(Nc1ccc(C2CCN(C(=O)c3ccoc3)CC2)cc1)N1CC(c2cccnc2)C1 [Example 182, N-{4-[1-(furan-3-ylcarbonyl)piperidin-4-yl]phenyl}-3-(pyridin-3-yl)azetidine-1-carboxamide]"
8.09,9.59,7.61,"CC1(C(=O)N2CCC(c3ccc(NC(=O)N4CC(c5cccnc5)C4)cc3)CC2)CCCCC1 [Example 181, N-(4-{1-[(1-methylcyclohexyl)carbonyl]piperidin-4-yl}phenyl)-3-(pyridin-3-yl)azetidine-1-carboxamide]"
7.84,9.35,8.11,"O=C(Nc1ccc(OC2CN(C(=O)C3CCCCC3)C2)cc1)N1CC(c2cccnc2)C1 [Example 139, N-(4-{[1-(cyclohexylcarbonyl)azetidin-3-yl]oxy}phenyl)-3-(pyridin-3-yl)azetidine-1-carboxamide]"
7.80,9.50,7.59,"CC1CC1C(=O)N1CCC(c2ccc(NC(=O)N3CC(c4cccnc4)C3)cc2)CC1 (stereo not drawn) [Example 164, N-(4-{1-[(2-methylcyclopropyl)carbonyl]piperidin-4-yl}phenyl)-3-(pyridin-3-yl)azetidine-1-carboxamide]"
7.98,9.47,8.38,"Cc1ccsc1C(=O)N1CC(c2ccc(NC(=O)N3CC(c4cccnc4)C3)cc2)C1 [Example 220, N-(4-{1-[(3-methylthiophen-2-yl)carbonyl]azetidin-3-yl}phenyl)-3-(pyridin-3-yl)azetidine-1-carboxamide]"
7.35,9.41,7.92,"CC(C)(C)OC(=O)N1CC(Oc2ccc(NC(=O)N3CC(c4cccnc4)C3)cc2)C1 [Example 63, tert-butyl 3-[4-({[3-(pyridin-3-yl)azetidin-1-yl]carbonyl}amino)phenoxy]azetidine-1-carboxylate]"
